A short description of data set [1]: Encapsulation efficiency of lipid nanoparticles (Quant-it RiboGreen RNA Assay). The format is physicochemical. As to conditions: lipid nanoparticles with luciferase mRNA. A digest of the protocol:
(§1)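 LNPs of ionizable lipid/cholesterol/phospholipid/PEG-lipid (50/38.5/10/1.5 mol%, N/P 6) were formed by microfluidic mixing with mRNA in pH 4.5 acetate, then buffer-exchanged by ultrafiltration. Size and PDI were measured by DLS. Encapsulation came from RiboGreen fluorescence (485/528 nm) in TE pH 7.5, with and without 0.5% Triton at 37 °C for 30 min.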

The next data set relates to C57BL/6 mice. Description: In vivo delivery of luciferase mRNA lipid nanoparticles in mice (bioluminescence imaging). As to conditions: intravenous, single dose 0.5 mg/kg luciferase mRNA. Summed up: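 Female C57BL/6 mice, 6-8 weeks old, received luciferase mRNA lipid nanoparticles as a single intravenous dose of 0.5 mg/kg mRNA. At 6 h, D-luciferin given intraperitoneally; 10 min later, mice were imaged under isoflurane anaesthesia. Values are group mean fluorescence intensity and total photon count.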

Data set [2] in a line: Particle size and PDI of lipid nanoparticles by dynamic light scattering. The format is physicochemical. As to conditions: lipid nanoparticles with luciferase mRNA; ionizable lipid/cholesterol/DSPC/DMG-PEG2000 50/38.5/10/1.5 mol%. Summed up: as §1
A short description of data set [3]: Clearance rate of ionizable lipids in vivo (liver content by LC-MS/MS). As to conditions: C57 WT female mice, tail vein, 100 μL unloaded LNP (0.1 mg/mL). The protocol: The 6-8 weeks old C57 WT female mice (n=3) were injected by tail vein administration of 100 μL of unloaded LNP (0.1 mg/mL) formed from the ionizable lipid, cholesterol, DSPC, and DMG-PEG 2000 at a ratio of 50:38.5:10:1.5. The experimental animals were executed by removing the cervical vertebrae and dissected for the liver at 24 h and 72 h after administration, respectively, while the same batch of non-dosed experimental animal livers were used as a blank control group. Water was added to the liver sample for homogenization, and the protein was precipitated. The content of the ionizable lipid in the sample was quantitatively analyzed using LC-MS/MS in comparison to a calibration standard prepared from matched blank liver tissues.

As for `CCCCCCCCCC(=O)OCCCC(C)(C)CCCN(CCCCO)CCCCCCC(=O)OCCCC(CCCCCC)CCCCCC` [94b], in data set [1], the “Encapsulation efficiency (%)” value is on record as 93.55%. In addition, the “Total photon count in vivo at 6 hours after administration (Total Flux)” value (“Total photon count in vivo at 6 hours” for short) with C57BL/6 mice stood at 2.23E+10. Also, in data set [2], the “Particle size (nm)” value came to 125.60 nm and the “Particle-size distribution (PDI)” value worked out at 0.11.
As for `CCCCCCCCCCC(=O)OCCCC(C)(C)CCCN(CCO)CCCCCCC(=O)OCC(CCCCCCCCC)CCCCCCCCC` [95b], in data set [1], the “Encapsulation efficiency (%)” value is given as 95.41%. Also, in the data set with C57BL/6 mice, the “Total photon count in vivo at 6 hours” value is 2.44E+10. Besides, in data set [2], the “Particle size (nm)” value is reported as 84.62 nm and the “Particle-size distribution (PDI)” value was determined as 0.15.
For `CCCCCCCCCCC(=O)OCCCC(C)(C)CCCN(CCO)CCCCCCCCC(=O)OCC(CCCCCCC)CCCCCCC` [96b] the same measures were 92.10%, 3.77E+10, 97.75 nm and 0.15.
On to `CCCCCCCCCCCC(=O)OCC(C)(C)CCCCCN(CCO)CCCCCCC(=O)OCC(CCCCCCCCCC)CCCCCCCCCC` [97b], for which the “Encapsulation efficiency (%)” value in data set [1] came out at 93.79%. Also, in the data set on C57BL/6 mice, the “Total photon count in vivo at 6 hours” value is on record as 9.01E+10. Further, in data set [2], the “Particle size (nm)” value is reported as 85.56 nm and the “Particle-size distribution (PDI)” value is reported as 0.14.
The like results for `CCCCCCCCCCCC(=O)OCC(C)(C)CCCCCN(CCO)CCCCCCCCC(=O)OCC(CCCCCCCC)CCCCCCCC` [98b] were, in that order, 93.04%, 1.07E+11, 87.99 nm and 0.18.
The like results for `CCCCCCCCCCC(=O)OCCC(C)(C)CCCCN(CCO)CCCCCCCC(=O)OCC(CCCCCCCC)CCCCCCCC` [99b] were, in that order, 92.70%, 4.78E+10, 85.13 nm and 0.15.
Consider `CCCCCCCCCCC(=O)OCCC(C)(C)CCCCN(CCCO)CCCCCCCC(=O)OCC(CCCCCCCC)CCCCCCCC` [100b], for which the “Encapsulation efficiency (%)” value in data set [1] stood at 91.14%. The “Total photon count in vivo at 6 hours” value in the data set on C57BL/6 mice is on record as 8.51E+10. Besides, in data set [2], the “Particle size (nm)” value is listed as 101.50 nm and the “Particle-size distribution (PDI)” value is on record as 0.12.
For `CCCCCCCCCCC(=O)OCCC(C)(C)CCCCN(CCCCO)CCCCCCCC(=O)OCC(CCCCCCCC)CCCCCCCC` [101b] the same measures were 81.76%, 5.39E+10, 126.00 nm and 0.10.
On to `CCCCCCCCCC(=O)OCCC(C)(C)CCCCN(CCO)CCCCCCC(=O)OCCC(CCCCCCC)CCCCCCC` [102b], for which the “Encapsulation efficiency (%)” value in data set [1] was 93.92%. In addition, in the data set on C57BL/6 mice, the “Total photon count in vivo at 6 hours” value was 7.52E+10. Also, in data set [2], the “Particle size (nm)” value is on record as 92.12 nm and the “Particle-size distribution (PDI)” value came out at 0.16.
Regarding `CCCCCCCCCC(=O)OCCC(C)(C)CCCCN(CCCO)CCCCCCC(=O)OCCC(CCCCCCC)CCCCCCC` [103b], the “Encapsulation efficiency (%)” value in data set [1] is reported as 94.07%. The “Total photon count in vivo at 6 hours” value with C57BL/6 mice was 5.95E+10. Moreover, in data set [2], the “Particle size (nm)” value is 96.82 nm and the “Particle-size distribution (PDI)” value was 0.11.
Regarding `CCCCCCCCCC(=O)OCCC(C)(C)CCCCN(CCCCO)CCCCCCC(=O)OCCC(CCCCCCC)CCCCCCC` [104b], the “Encapsulation efficiency (%)” value in data set [1] is given as 91.51%. Also, in the data set with C57BL/6 mice, the “Total photon count in vivo at 6 hours” value is 3.20E+10. Besides, in data set [2], the “Particle size (nm)” value was determined as 135.57 nm and the “Particle-size distribution (PDI)” value turned out to be 0.09.
On to `CCCCCCCCC(=O)OCCC(C)(C)CCCCCN(CCO)CCCCCCC(=O)OCC(CCCCCCCC)CCCCCCCC` [105b], for which the “Encapsulation efficiency (%)” value in data set [1] was found to be 94.38%. Besides, the “Total photon count in vivo at 6 hours” value in the data set on C57BL/6 mice is listed as 9.24E+10. Also, in data set [2], the “Particle size (nm)” value amounted to 89.73 nm and the “Particle-size distribution (PDI)” value is reported as 0.16.
As for `CCCCCCCCCC(=O)OCCC(C)(C)CCCCCN(CCO)CCCCCCC(=O)OCC(CCCCCCCCC)CCCCCCCCC` [106b], the “Encapsulation efficiency (%)” value in data set [1] is 94.89%. In addition, the “Total photon count in vivo at 6 hours” value in the data set on C57BL/6 mice came out at 1.42E+11. For the same compound, in data set [2], the “Particle size (nm)” value amounted to 88.22 nm and the “Particle-size distribution (PDI)” value turned out to be 0.15.
With `CCCCCCCCCC(=O)OCCC(C)(C)CCCCCN(CCO)CCCCCCCCC(=O)OCC(CCCCCCC)CCCCCCC` [107b], the “Encapsulation efficiency (%)” value in data set [1] is reported as 94.05%. Further, the “Total photon count in vivo at 6 hours” value with C57BL/6 mice is recorded as 1.98E+11. Further, in data set [2], the “Particle size (nm)” value was determined as 88.13 nm and the “Particle-size distribution (PDI)” value was 0.16.
Consider `CCCCCCCCCC(=O)OCCC(C)(C)CCCCCN(CCO)CCCCCCC(=O)OCCC(CCCCCCCC)CCCCCCCC` [108b], for which, in data set [1], the “Encapsulation efficiency (%)” value worked out at 94.16%. Besides, the “Total photon count in vivo at 6 hours” value in the data set with C57BL/6 mice is 1.38E+11. For the same compound, in data set [2], the “Particle size (nm)” value is given as 86.61 nm and the “Particle-size distribution (PDI)” value came out at 0.16.
For `CCCCCCCCCC(=O)OCCC(C)(C)CCCCCN(CCCCO)CCCCCCC(=O)OCCC(CCCCCCCC)CCCCCCCC` [109b] the same measures were 93.00%, 1.90E+11, 95.32 nm and 0.13.
Regarding `CCCCCCCCC(=O)OCC(C)(C)CCCCCCN(CCO)CCCCCCC(=O)OCC(CCCCCCCC)CCCCCCCC` [110b], the “Encapsulation efficiency (%)” value in data set [1] is listed as 85.48%. In addition, the “Total photon count in vivo at 6 hours” value with C57BL/6 mice is recorded as 1.36E+11. In data set [2], the “Particle size (nm)” value is 133.93 nm and the “Particle-size distribution (PDI)” value was 0.21.
For `CCCCCCCCCC(=O)OCCCC(C)(C)CCCN(CCO)CCCCCCCCC(=O)OCC(CCCCCC)CCCCCC` [111b] the same measures were 63.26%, 3.98E+10, 187.13 nm and 0.21.
With `CCCCCCCCCC(=O)OCCCC(C)(C)CCCN(CCCO)CCCCCCCCC(=O)OCC(CCCCCC)CCCCCC` [112b], the “Encapsulation efficiency (%)” value in data set [1] is reported as 69.74%. Further, the “Total photon count in vivo at 6 hours” value in the data set with C57BL/6 mice is 1.31E+10. Further, in data set [2], the “Particle size (nm)” value was found to be 175.67 nm and the “Particle-size distribution (PDI)” value was 0.17.
For `CCCCCCCCCC(=O)OCCCC(C)(C)CCCN(CCCCO)CCCCCCCCC(=O)OCC(CCCCCC)CCCCCC` [113b], in data set [1], the “Encapsulation efficiency (%)” value was determined as 88.21%. The “Total photon count in vivo at 6 hours” value with C57BL/6 mice was determined as 2.09E+10. Also, in data set [2], the “Particle size (nm)” value is 147.03 nm and the “Particle-size distribution (PDI)” value was 0.09.
For `CCCCCCCCCCC(=O)OCCCC(C)(C)CCCN(CCCO)CCCCCCC(=O)OCC(CCCCCCCCC)CCCCCCCCC` [114b], the “Encapsulation efficiency (%)” value in data set [1] stood at 93.55%. The “Total photon count in vivo at 6 hours” value in the data set on C57BL/6 mice was found to be 4.53E+10. In addition, in data set [2], the “Particle size (nm)” value is on record as 103.40 nm and the “Particle-size distribution (PDI)” value is 0.13.
The like results for `CCCCCCCCCCC(=O)OCCCC(C)(C)CCCN(CCCCO)CCCCCCC(=O)OCC(CCCCCCCCC)CCCCCCCCC` [115b] were, in that order, 93.91%, 3.71E+10, 100.25 nm and 0.12.
The like results for `CCCCCCCCCCC(=O)OCCCC(C)(C)CCCN(CCCCO)CCCCCCCCC(=O)OCC(CCCCCCC)CCCCCCC` [116b] were, in that order, 90.71%, 1.96E+10, 120.13 nm and 0.09.
Take `CCCCCCCCCC(=O)OCC(C)(C)CCCCCN(CCCCO)CCCCCCCC(=O)OCC(CCCCCCC)CCCCCCC` [117b]: the “Encapsulation efficiency (%)” value in data set [1] is 72.51%. The “Total photon count in vivo at 6 hours” value in the data set on C57BL/6 mice stood at 1.73E+10. Also, in data set [2], the “Particle size (nm)” value came to 151.17 nm and the “Particle-size distribution (PDI)” value was found to be 0.09.
As to `CCCCCCCCCOC(=O)C(C)(C)CCCCCCN(CCO)CCCCCCC(C)(C)C(=O)OC(CCCCCCCC)CCCCCCCC` [Control group, reference compound], in data set [3] (24 h), the “Percentage of cationic lipids in the liver in the total dose, 24 h after administration (%)” value is listed as 92 ± 3.5%. Besides, the “Percentage of cationic lipids in the liver in the total dose, 72 h after administration (%)” value in data set [3] is given as 89 ± 4.7%; in data set [3] (listed as control group) it was “about 90%”.
